{
  "source": "patent US20070049538A1",
  "about": "“METHODS FOR USING CUCURBITACIN COMPOUNDS” (SOUTH DAKOTA STATE UNIVERSITY, priority 2005, published 2007)",
  "key": {"[1]": {"conditions": "mouse, in vivo; cited from earlier work"}, "[2]": {"test": "Chromatographic hydrophobicity index (CHI) by RP-HPLC in buffered acetonitrile", "format": "physicochemical", "design": "key: CHI = φ0 (isocratic hydrophobicity index), = A·tR + B; ACN % scale", "conditions": "for CHIACN1: buffered acetonitrile pH 7.0, Alltima C18 250 mm, Eq. (2) from isocratic φ0; for CHIACN2: buffered acetonitrile pH 7.0, Eq. (3) calibrated against published CHI", "method": "(§1) We used Dynamax liquid chromatograph (Varian Chromatography Systems) with PDA-2 photodiode array UV detector, controlled by the Dynamax PC Chromatography Data System (v. 1.9) software and Dynamax dual pump solvent delivery system, model SD-200. […] Cucurbitacins analytical separation was optimized on Alltima C18 (Alltech; 250 mm×4.6 mm, 5 μm) HPLC column, at gradient elution in acetonitrile (ACN, 30-70% ACN in 57 min), and in MeOH (60-75% MeOH in 50 min). Cucurbitacins stock concentration of 10^−2M in DMSO:ethanol (1:1) was standardized against pure cucurbitacin I (Indofine Chemical Company, Hillsborough, N.J.) by analytical HPLC means. Compounds CHI was measured in both ACN, by using Alltima C18 column, and in MeOH, by using Econosil C18 column (Alltech; 150 mm×4.6 mm, 5 μm). Analytical separations were conducted at a flow rate of 1 ml/min. The aqueous phase was buffered for the CHI measurement. For this purpose, solid ammonium acetate (Fisher Sci. Co., Fair Lawn, N.J.) was dissolved in deionized distilled water at 50 mM final concentration and its pH adjusted to 7.0.\nAll standard compounds were purchased from Acros (Acros Organics, NJ). The chromatographic lipophilicity or hydrophobicity was determined applying Valkó's technique (Valkó et al., Anal. Chem. 69 (1997) 2022, the entire disclosure of which is herein incorporated by reference). A standard mixture of seven compounds was prepared in solution: theophylline (compound 19), benzimidazole (compound 20), acetophenone (compound 21), indole (compound 22), propiophenone (compound 23), butyrophenone (compound 24), and valerophenone (compound 25). […] The retention factor, log k=log((tR-t0)/t0), was calculated for each analyte from five good injections of […] sample. The dead time (t0) was measured by injecting NaNO3 together with the sample. Then, the log k values were plotted against isocratic ACN concentrations to establish the linear regression equations for each analyte. From each straight line the isocratic hydrophobicity index was computed, φ0=(intercept/slope). Further, the calibration mixture was injected at fast gradient elution, 0-22 min 0-100% ACN, and three additional minutes at 100% ACN. The φ0 values for the test compounds were plotted against gradient retention time and the linear equation determined from the following equation: φ0=CHI=AtR+B (1)\nThe gradient elution conditions were similar to the one from the first approach.\n(§2) Cucurbitacins lipophilicity was measured by RP-HPLC. […] Due to its high viscosity, aqueous MeOH required a shorter column than the one applied for ACN. First, the C18 columns were calibrated against a standard mixture, and the relationships established between the fast gradient tR and φ0 or published CHI (see Eqs. (2)-(4) from Table 2). Second, cucurbitacins were injected at fast gradient elution under similar conditions, and their CHI calculated (Table 4) from Eqs. (2)-(4). Eqs."}, "HSC-T6 cells [3]": {"test_system": "HSC-T6 cells", "test": "Serum-driven HSC-T6 proliferation, experiment 3 (24 h, proliferating cells)", "format": "cell-based, rat", "conditions": "HSC-T6, 24 h, proliferating cells; read-out: Experiment 3 EC50 (A)", "method": "To overcome this problem, the amount of incubation time was increased to 24 h, and cucurbitacin activity measured on starved (Exp. 2) or proliferative (Exp. 3) cells (Table 8). Cells turned quiescent when serum was not supplemented for one day (Exp. 2). Activity of a few compounds was monitored on quiescent cells, and their activity compared to the ones measured on proliferating cells (Exp. 3).\nWe established several experimental conditions such as 4 hours of incubation time with cucurbitacin, and 2 day cell incubation with fresh media after challenging with cucurbitacin (Exp. 1). Other experiments involved addition of cucurbitacin for 24 hours over starved cells (Exp. 2) vs. proliferating cells (Exp. 3), and one day incubation of cells with fresh media after challenge. The 4 hour incubation period with cucurbitacin triggered anti-proliferation effect. This effect, however, was hindered by a second cycle of cell proliferation during the two-day cell growth period (see silybin, E and I glucosides, and for I-nPr). […] Because of that, the challenge time was increased to 24 hours (Exp. 2 and 3).\nIn experiment 3, only 40% of the cells divided. The ratio of EC50 values for exp. 2 and exp. 3 varied between 3.6 and 12.7. This may indicate differential cytotoxicity of silybin and cucurbitacin analogs over quiescent and active stellate cells. In other words, compounds show higher anti-proliferative activity on active cells than on quiescent cells."}, "HepG2 cells [4]": {"test_system": "HepG2 cells", "test": "cells", "conditions": "read-out: EC50 cytoprotection; Table 7; HepG2 against CCl4 toxicity; estimated", "source_text": "Experimental conditions were standardized on silybin. […]\nThe ratio of IC50-to-EC50 (hereafter T/A) is also indicated in this table, which gives the margin between toxic and cytoprotective concentrations."}, "HSC-T6 cells [5]": {"test_system": "HSC-T6 cells", "test": "Cytotoxicity on HSC-T6 cells (experiment 3)", "format": "cell-based, rat", "conditions": "read-out: Experiment 3 IC50 (T)", "source_text": "Cytotoxicity of all cucurbitacin analogs was additionally measured in experiment 3 (Table 8)."}, "HepG2 cells [6]": {"test_system": "HepG2 cells", "test": "Cucurbitacins cytotoxicity on HepG2 cells (MTT viability assay)", "format": "cell-based, human", "method": "HepG2 (human hepatocellular carcinoma, ATCC) cells were grown in EMEM (Gibco, Grand Island, N.Y.) supplemented with 10% fetal bovine serum (FBS), and 1% penicillin/fungizone mixture (Gibco). Thabrew's optimized procedure (Thabrew et al., J. Pharm. Pharmcol. 49 (1994) 1442, the entire disclosure of which is herein incorporated by reference) was followed. Cells were batch cultured for 10 days, then seeded at concentration of 30,000 cells/well in fresh media in 96-well microtiter plastic plates at 37° C. for a day. Then cells were exposed to different concentrations of cucurbitacins at final volume of 100 μl/well. Five-fold serial dilution of compounds was carried out in the plate for five consecutive wells. After 24 h of incubation with chemicals, live cells were visualized using the MTT viability assay (Promega, Madison, Wis.). The absorbance was measured at 570 nm. Negative (without cells) and positive (without test chemicals) controls were also incubated with each plate. […] At least three reproducible experiments were performed per compound with three replicate wells per concentration.\nCells were challenged with cu-curbitacins at various concentrations for a day and then live cells quantified with MTT dye. This period of time measures exclusively compounds cytotoxicity, while longer incubation time may lead to interference from metabolites."}, "HSC-T6 cells [7]": {"test_system": "HSC-T6 cells", "test": "Serum-driven HSC-T6 proliferation, experiment 1 (4 h challenge, two days drug-free growth)", "format": "cell-based, rat", "conditions": "HSC-T6, 4 h challenge, then two days drug-free media", "method": "The proliferation effect of serum on HSC-T6 cells was optimized and cucurbitacin antiproliferative activity was measured. Serum contains a large number of growth factors, hormones and other nutrients, which help cells to grow and multiply. Several trials were conducted. In experiment 1, cells were challenged with cucurbitacin analogs for 4 h and then cells were grown in drug-free media for two additional days.\nHSC-T6 cells were photographed under phase-contrast microscope to record possible changes in cell morphology during experiment 1. […] We are monitoring specifically the effect of compound on the cells, cell recovery after 4 h challenge, and relative cell proliferation. […] Live cells are quantified at the end of the assay (row 4) with MTT dye.\nWe established several experimental conditions such as 4 hours of incubation time with cucurbitacin, and 2 day cell incubation with fresh media after challenging with cucurbitacin (Exp. 1). Other experiments involved addition of cucurbitacin for 24 hours over starved cells (Exp. 2) vs. proliferating cells (Exp. 3), and one day incubation of cells with fresh media after challenge. […] Because of that, the challenge time was increased to 24 hours (Exp. 2 and 3).\nWe modified this approach. Our assay included a second control (ZC) supplemented with no serum intended to measure cucurbitacin anti-proliferation effect relative to the number of cells generated during challenge instead of the total number of cells present in each well."}, "[8]": {"test": "Chromatographic hydrophobicity index (CHI) by RP-HPLC in buffered methanol", "format": "physicochemical", "conditions": "for CHIMeOH: buffered methanol pH 7.0, Econosil C18 150 mm, Eq. (4)", "method": "as §1\nA standard mixture of 10 compounds including 19-21, 23-27, aniline (compound 28) and bromobenzene (compound 29), dissolved in MeOH, was injected at five isochratic elution, at 40, 45, 50, 55, and 60% MeOH. Then the mixture was injected at fast gradient elution to establish the correlation from Eq. (1). The fast linear gradient elution was optimized for 30-100% MeOH in aqueous buffer with 10 min runtime.\nas §2"}, "HepG2 cells [9]": {"test_system": "HepG2 cells", "format": "cell-based, human", "experimental": "The activity of two toxins was studied first on HepG2 cells—bromobenzene (BB) and CCl4. Cells were challenged with the toxins at different concentration levels. Precipitate formation was observed when BB was diluted with media prior to addition to the cells; therefore, both the precipitate and the supernatant were added separately over cells to study their toxic effect."}, "[10]": {"test": "ABTS*+ Radical Cation Decolorization Assay", "conditions": "read-out: concentration of 50% inhibition", "method": "Cucurbitacin B activity was monitored at 50 μM, 100 μM, and 1.8 mM. The time interval was expanded up to 2 hours in case cucurbitacin B was reacting slowly."}, "[11]": {"conditions": "in vivo; cited from earlier work"}},
  "note": "Like-named read-outs stand apart in the source and are kept apart here.",
  "data": [
    {"smiles": "CC(C)(O)/C=C/C(=O)[C@](C)(O)[C@H]1[C@H](O)C[C@@]2(C)[C@@H]3CC=C4[C@@H](C[C@H](O)C(=O)C4(C)C)[C@]3(C)C(=O)C[C@]12C", "note": "[D, cucurbitacin D]", "values": [
      {"measurement": "capillary permeability", "setting": "[1]", "result": "enhanced capillary permeability"},
      {"measurement": "CHIACN1", "setting": "[2]", "result": 58.31},
      {"measurement": "CHIACN2", "setting": "[2]", "result": 55.83},
      {"measurement": "EC50", "setting": "HSC-T6 cells [3]", "result": 70, "unit": "nM"},
      {"measurement": "EC50", "setting": "HepG2 cells [4]", "result": 9, "unit": "µM"},
      {"measurement": "IC50", "setting": "HSC-T6 cells [5]", "result": 26, "unit": "µM"},
      {"measurement": "IC50", "setting": "HepG2 cells [6]; Table 4, 24 h incubation, MTT", "result": 77.3, "unit": "µM"},
      {"measurement": "IC50", "setting": "HepG2 cells [6]; Table 5", "result": "77.3 ± 8.7", "unit": "µM"},
      {"measurement": "IC50", "setting": "HepG2 cells [6]; Table 7", "result": 77.3, "unit": "µM"},
      {"measurement": "EC50", "setting": "HSC-T6 cells [7]", "result": 3.8, "unit": "µM"},
      {"measurement": "CHIMeOH", "setting": "[8]", "result": 60.40}
    ]},
    {"smiles": "Brc1ccccc1", "note": "[Bromobenzene (29), bromobenzene, reference compound]", "values": [
      {"measurement": "CHIMeOH (b)", "setting": "[8]; standard compounds, isochratic and gradient elution of standard mixture", "result": "69.43 + 0.07"},
      {"measurement": "cell viability", "setting": "HepG2 cells [9]; HepG2, toxin at 20 nM", "result": "no viability"}
    ]},
    {"smiles": "Cc1c(C)c2c(c(C)c1O)CCC(C)(C(=O)O)O2", "note": "(stereo not shown) [trolox, reference compound]", "values": [
      {"measurement": "IC50", "setting": "[10]", "result": 580, "unit": "µM"}
    ]},
    {"smiles": "CC(=O)OC(C)(C)/C=C/C(=O)[C@@](C)(O)[C@H]1[C@H](O)C[C@@]2(C)[C@@H]3CC=C4[C@@H](CC(=O)[C@@H](O)C4(C)C)[C@]3(C)C(=O)C[C@]12C", "note": "[iso-B, iso-cucurbitacin B]", "values": [
      {"measurement": "CHIACN1", "setting": "[2]", "result": 72.86},
      {"measurement": "CHIACN2", "setting": "[2]", "result": 78.38},
      {"measurement": "protective and preventive activity", "setting": "[11]", "result": "significantly reducing serum enzymes level, steatosis, inflammation, and experimental cholestasis"},
      {"measurement": "CHIMeOH", "setting": "[8]", "result": 68.50}
    ]},
    {"smiles": "ClC(Cl)(Cl)Cl", "note": "[CCl4]", "values": [
      {"measurement": "cell viability", "setting": "HepG2 cells [9]; HepG2, toxin at 4.5×10^−3 M", "result": "~50", "unit": "%"}
    ]}
  ]
}
